Results as given in patent US8372854B2, “Pyrrolo[2,3-D]pyrimidine compounds” (Pfizer Inc., priority 2009, dated 2013).

What was measured:
Assay type in all cases: biochemical
[1] = target: T1, JAK3 (Homo sapiens, UniProt P52333); test: JAK enzymatic assay (peptide mobility shift), JAK3; details: recombinant JAK3 1 nM, ATP 4 μM, 1 μM JAKtide peptide, 90 minutes
T1 construct: purchased Invitrogen Corporation, Madison, Wis; PV3855
T1 sequence (P52333 1-1124): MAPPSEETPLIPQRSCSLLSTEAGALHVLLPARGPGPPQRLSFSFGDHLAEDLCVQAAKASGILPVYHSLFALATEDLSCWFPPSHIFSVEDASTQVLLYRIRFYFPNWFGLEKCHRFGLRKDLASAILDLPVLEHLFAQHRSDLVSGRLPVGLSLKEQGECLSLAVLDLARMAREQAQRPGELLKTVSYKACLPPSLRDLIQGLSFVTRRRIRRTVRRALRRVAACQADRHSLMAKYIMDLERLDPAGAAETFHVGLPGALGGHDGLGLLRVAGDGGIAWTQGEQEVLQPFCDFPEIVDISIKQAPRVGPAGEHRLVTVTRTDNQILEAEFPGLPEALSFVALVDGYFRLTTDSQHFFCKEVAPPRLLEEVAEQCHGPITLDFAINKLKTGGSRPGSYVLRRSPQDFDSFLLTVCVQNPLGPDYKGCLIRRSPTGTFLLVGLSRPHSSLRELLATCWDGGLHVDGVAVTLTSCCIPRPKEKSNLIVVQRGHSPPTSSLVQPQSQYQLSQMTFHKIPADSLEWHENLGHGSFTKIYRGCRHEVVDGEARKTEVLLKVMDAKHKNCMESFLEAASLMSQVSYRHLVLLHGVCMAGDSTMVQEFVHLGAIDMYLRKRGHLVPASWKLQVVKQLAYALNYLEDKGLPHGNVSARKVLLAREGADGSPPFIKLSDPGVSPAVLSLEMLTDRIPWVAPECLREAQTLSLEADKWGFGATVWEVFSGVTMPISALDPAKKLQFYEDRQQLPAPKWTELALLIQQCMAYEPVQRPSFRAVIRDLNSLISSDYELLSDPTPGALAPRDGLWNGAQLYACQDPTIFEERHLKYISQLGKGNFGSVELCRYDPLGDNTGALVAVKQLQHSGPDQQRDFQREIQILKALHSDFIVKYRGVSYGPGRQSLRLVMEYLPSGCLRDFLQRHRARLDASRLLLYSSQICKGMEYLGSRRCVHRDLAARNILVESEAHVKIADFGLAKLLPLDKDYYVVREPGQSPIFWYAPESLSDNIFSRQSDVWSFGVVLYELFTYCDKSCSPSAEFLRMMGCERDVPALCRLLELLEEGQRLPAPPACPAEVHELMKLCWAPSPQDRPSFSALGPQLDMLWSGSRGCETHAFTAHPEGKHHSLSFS
Source text: Recombinant JAK1 (Catalog Number PV4775), JAK2 (Catalog Number PV4210) and JAK3 (Catalog Number PV3855) were purchased from (Invitrogen Corporation, Madison, Wis.). Tyk2 (His-Tyk2 (888-1182, C936S, C1142S)) used in this study was expressed and purified at Pfizer Laboratories. Adenosine 5′-triphosphate (ATP) was obtained from (Sigma Chemical Company, St. Louis, Mo.). […] Coating Reagent 3 was purchased from (Caliper Life Sciences, Hopkinton, Mass.).
(§1) A peptide mobility shift assay was used to quantify the phosphorylation of the JAKtide (JAK2 and JAK3) or the IRS-1 peptide ([…] and Tyk2). Reactions were carried out in a 384-well plate (Matrical MP-101) in a 10 μL total volume. Reaction mixtures contained 20 mM HEPES, pH 7.4, 10 mM magnesium chloride, 0.01% bovine serum albumin (BSA), 0.0005% Tween-20, ATP (4 μM for JAK2 and JAK3, 40 μM for JAK1 and 7 μM for Tyk2)), 2% DMSO and 1 μM peptide substrate (JAKtide for JAK2 and JAK3 and IRS-1 peptide for JAK1 and Tyk2). Compounds were diluted serially in 100% dimethyl sulfoxide and tested in an 11 point dose response in duplicate or quadruplicate (200 nl of compound/DMSO was added per 10 μL reaction). The reactions were initiated by the addition of enzyme to the final concentration of 2 nM JAK2, 1 nM JAK3, 12 nM Tyk2 or 20 nM JAK1. The assay was run for 240 minutes for JAK1, 150 minutes for JAK2, 90 minutes for JAK3 and 70 minutes for Tyk2. The assays were stopped at the specified times with 20 uL of 140 mM HEPES, 22.5 mM EDTA and 0.15% Coating Reagent 3. The plates were placed on a LabChip 3000 (LC3000) instrument from (Caliper Life Sciences) to measure the formation of phosphorylated peptide. Data was analyzed using Hits Well Analyzer Software from (Caliper Life Sciences) to obtain the amount of product formed.
(§2) Data was then imported into an internal application where each data point is expressed as % inhibition based on uninhibited and no enzyme controls. Dose-response data is then fit using a 4 parameter logistic equation (Equation 1) to determine an IC50.
(§3) Where max is the fitted uninhibited value, min is the fitted complete inhibition value, and s is the slope factor.

[2] = target: T2, JAK1 (Homo sapiens, UniProt P23458); test: JAK enzymatic assay (peptide mobility shift), JAK1; details: recombinant JAK1 20 nM, ATP 40 μM, 1 μM IRS-1 peptide, 240 minutes
T2 construct: purchased Invitrogen Corporation, Madison, Wis; PV4775
Source text: (§4) Recombinant JAK1 (Catalog Number PV4775), JAK2 (Catalog Number PV4210) and JAK3 (Catalog Number PV3855) were purchased from (Invitrogen Corporation, Madison, Wis.). Tyk2 (His-Tyk2 (888-1182, C936S, C1142S)) used in this study was expressed and purified at Pfizer Laboratories. Adenosine 5′-triphosphate (ATP) was obtained from (Sigma Chemical Company, St. Louis, Mo.). The JAKtide peptide (peptide sequence, FITC-[…]) used for the JAK2 and JAK3 assays and the IRS-1 peptide (peptide sequence, 5-FAM-[…]) used for the JAK1 and Tyk2 assays were purchased from (American Peptide Company, Sunnyvale, Calif.). Coating Reagent 3 was purchased from (Caliper Life Sciences, Hopkinton, Mass.).
as §1, §2, §3

[3] = target: T3, JAK2 (Homo sapiens, UniProt O60674); test: JAK enzymatic assay (peptide mobility shift), JAK2; details: recombinant JAK2 2 nM, ATP 4 μM, 1 μM JAKtide peptide, 150 minutes
T3 construct: purchased Invitrogen Corporation, Madison, Wis; PV4210
Source text: as §4, §1, §2, §3

T2 sequence (P23458 whole entry): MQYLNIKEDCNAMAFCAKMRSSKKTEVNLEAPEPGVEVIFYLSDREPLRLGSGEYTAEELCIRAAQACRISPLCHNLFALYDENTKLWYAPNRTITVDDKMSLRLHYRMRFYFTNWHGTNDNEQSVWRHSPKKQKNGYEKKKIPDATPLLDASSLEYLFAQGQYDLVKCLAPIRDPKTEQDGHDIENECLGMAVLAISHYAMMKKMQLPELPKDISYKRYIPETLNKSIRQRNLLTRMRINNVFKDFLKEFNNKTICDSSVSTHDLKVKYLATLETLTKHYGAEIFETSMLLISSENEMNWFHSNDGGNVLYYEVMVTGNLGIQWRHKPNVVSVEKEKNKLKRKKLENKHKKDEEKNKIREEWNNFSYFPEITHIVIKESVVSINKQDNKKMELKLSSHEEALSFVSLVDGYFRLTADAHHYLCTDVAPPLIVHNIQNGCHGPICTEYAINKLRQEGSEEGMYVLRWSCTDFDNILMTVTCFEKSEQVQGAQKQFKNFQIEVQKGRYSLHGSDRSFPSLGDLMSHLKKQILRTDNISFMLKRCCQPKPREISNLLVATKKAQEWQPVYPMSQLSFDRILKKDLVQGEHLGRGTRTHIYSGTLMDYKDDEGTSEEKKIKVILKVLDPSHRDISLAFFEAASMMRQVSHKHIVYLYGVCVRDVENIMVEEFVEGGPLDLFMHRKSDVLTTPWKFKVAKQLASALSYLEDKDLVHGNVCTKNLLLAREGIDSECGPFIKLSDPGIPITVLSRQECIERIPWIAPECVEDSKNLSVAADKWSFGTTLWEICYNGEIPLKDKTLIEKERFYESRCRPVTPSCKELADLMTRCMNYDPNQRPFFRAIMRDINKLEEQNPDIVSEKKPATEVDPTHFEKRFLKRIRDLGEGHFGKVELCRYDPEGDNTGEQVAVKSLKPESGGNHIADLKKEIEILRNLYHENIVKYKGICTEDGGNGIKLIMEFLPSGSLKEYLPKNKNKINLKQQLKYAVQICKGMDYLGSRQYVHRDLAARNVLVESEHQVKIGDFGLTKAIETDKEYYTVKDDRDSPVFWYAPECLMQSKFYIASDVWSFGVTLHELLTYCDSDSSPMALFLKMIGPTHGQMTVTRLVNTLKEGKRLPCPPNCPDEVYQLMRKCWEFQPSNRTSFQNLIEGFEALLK
T3 sequence (O60674 whole entry): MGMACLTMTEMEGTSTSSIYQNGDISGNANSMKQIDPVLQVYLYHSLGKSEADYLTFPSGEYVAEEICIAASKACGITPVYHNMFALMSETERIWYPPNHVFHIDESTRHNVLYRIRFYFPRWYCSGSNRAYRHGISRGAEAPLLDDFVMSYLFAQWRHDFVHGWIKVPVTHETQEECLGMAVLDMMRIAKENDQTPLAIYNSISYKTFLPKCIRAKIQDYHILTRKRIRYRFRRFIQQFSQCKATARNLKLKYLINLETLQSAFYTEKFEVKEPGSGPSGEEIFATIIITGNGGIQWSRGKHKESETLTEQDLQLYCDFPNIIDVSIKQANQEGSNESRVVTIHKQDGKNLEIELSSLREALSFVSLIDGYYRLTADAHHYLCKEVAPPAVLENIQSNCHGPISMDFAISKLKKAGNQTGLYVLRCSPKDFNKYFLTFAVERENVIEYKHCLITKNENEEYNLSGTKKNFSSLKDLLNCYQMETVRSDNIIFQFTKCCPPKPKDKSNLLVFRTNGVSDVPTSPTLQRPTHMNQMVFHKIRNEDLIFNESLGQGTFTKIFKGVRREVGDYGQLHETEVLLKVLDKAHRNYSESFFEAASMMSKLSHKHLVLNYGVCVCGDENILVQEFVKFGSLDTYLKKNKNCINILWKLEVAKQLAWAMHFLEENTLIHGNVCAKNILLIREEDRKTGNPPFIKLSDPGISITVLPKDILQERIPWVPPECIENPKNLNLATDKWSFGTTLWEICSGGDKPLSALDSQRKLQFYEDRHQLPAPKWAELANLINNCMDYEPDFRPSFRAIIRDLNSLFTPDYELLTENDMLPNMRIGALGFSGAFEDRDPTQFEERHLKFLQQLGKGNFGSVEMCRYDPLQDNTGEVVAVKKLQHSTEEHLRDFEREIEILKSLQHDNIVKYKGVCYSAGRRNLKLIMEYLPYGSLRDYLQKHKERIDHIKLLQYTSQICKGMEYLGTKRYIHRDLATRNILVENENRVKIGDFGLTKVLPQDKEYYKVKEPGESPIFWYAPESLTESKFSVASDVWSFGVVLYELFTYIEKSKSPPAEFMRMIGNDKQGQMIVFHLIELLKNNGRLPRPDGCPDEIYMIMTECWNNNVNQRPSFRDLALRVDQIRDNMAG

## CN(c1ncnc2[nH]ccc12)[C@H]1CC[C@H](CS(=O)(=O)NCc2ccccc2)CC1 [Example 16, N-benzyl-1-{trans-4-[methyl-(7H-pyrrolo[2,3-d]pyrimidin-4-yl)amino]-cyclohexyl}-methanesulfonamide]
[1]
  IC50: 182 nM
[2]
  IC50: 13.5 nM
[3]
  IC50: 29.4 nM

## Cc1ccc(CCNS(=O)(=O)C[C@H]2CC[C@H](N(C)c3ncnc4[nH]ccc34)CC2)c(C)c1 [Example 4, N-[2-(2,4-dimethylphenyl)-ethyl]-1-{trans-4-[methyl-(7H-pyrrolo[2,3-d]pyrimidin-4-yl)amino]cyclohexyl}-methanesulfonamide]
[1]
  IC50: 139 nM
[2]
  IC50: 3.01 nM
[3]
  IC50: 9.17 nM

## CN(c1ncnc2[nH]ccc12)[C@H]1CC[C@H](CS(=O)(=O)NC[C@H]2CCCO2)CC1 [Example 47, 1-{trans-4-[methyl(7H-pyrrolo[2,3-d]pyrimidin-4-yl)amino]cyclohexyl}-N-[(2R)-tetrahydrofuran-2-ylmethyl]-methanesulfonamide]
[1]
  IC50: 1060 nM
[2]
  IC50: 16.1 nM
[3]
  IC50: 174 nM

## COc1ccc(CNS(=O)(=O)C[C@H]2CC[C@@H](N(C)c3ncnc4[nH]ccc34)CC2)cc1 [Example 56, N-(4-methoxybenzyl)-1-{cis-4-[methyl(7H-pyrrolo[2,3-d]pyrimidin-4-yl)amino]cyclohexyl}-methanesulfonamide]
[1]
  IC50: 114 nM
[2]
  IC50: 10.7 nM
[3]
  IC50: 36.6 nM

## CN(c1ncnc2[nH]ccc12)[C@H]1CC[C@H](CS(=O)(=O)NCc2cccnc2)CC1 [Example 19, 1-{trans-4-[methyl(7H-pyrrolo[2,3-d]pyrimidin-4-yl)amino]cyclohexyl}-N-(pyridin-3-ylmethyl)-methanesulfonamide]
[1]
  IC50: 376 nM
[2]
  IC50: 9.3 nM
[3]
  IC50: 57.9 nM

## CN(c1ncnc2[nH]ccc12)[C@H]1CC[C@H](CS(=O)(=O)NCCc2ccc(C(F)(F)F)cc2)CC1 [Example 12, 1-{trans-4-[methyl(7H-pyrrolo[2,3-d]pyrimidin-4-yl)amino]cyclohexyl}-N-{2-[4-(trifluoromethyl)-phenyl]ethyl}-methanesulfonamide]
[1]
  IC50: 511 nM
[2]
  IC50: 16.5 nM
[3]
  IC50: 55.5 nM

## CN(c1ncnc2[nH]ccc12)[C@H]1CC[C@H](CS(=O)(=O)NCCc2cccc(F)c2)CC1 [Example 33, N-[2-(3-fluorophenyl)ethyl]-1-{trans-4-[methyl(7H-pyrrolo[2,3-d]pyrimidin-4-yl)amino]cyclohexyl}-methanesulfonamide]
[1]
  IC50: 192 nM
[2]
  IC50: 4.95 nM
[3]
  IC50: 24.2 nM

## Cc1nn(C)cc1CNS(=O)(=O)C[C@H]1CC[C@H](N(C)c2ncnc3[nH]ccc23)CC1 [Example 52, N-[(1,3-dimethyl-1H-pyrazol-4-yl)methyl]-1-{trans-4-[methyl(7H-pyrrolo[2,3-d]pyrimidin-4-yl)amino]cyclohexyl}-methanesulfonamide]
[1]
  IC50: 762 nM
[2]
  IC50: 24 nM
[3]
  IC50: 107 nM

## Cc1cc2cc(CNS(=O)(=O)C[C@H]3CC[C@H](N(C)c4ncnc5[nH]ccc45)CC3)ccc2[nH]1 [Example 34, N-[(2-methyl-1H-indol-5-yl)methyl]-1-{trans-4-[methyl(7H-pyrrolo[2,3-d]-pyrimidin-4-yl)amino]-cyclohexyl}-methanesulfonamide]
[1]
  IC50: 224 nM
[2]
  IC50: 6.76 nM
[3]
  IC50: 24.7 nM

## CN(c1ncnc2[nH]ccc12)[C@H]1CC[C@H](CS(=O)(=O)N[C@H]2CC[C@H](C(C)(C)O)CC2)CC1 [Example 37, N-[trans-4-(1-hydroxy-1-methylethyl)cyclohexyl]-1-{trans-4-[methyl(7H-pyrrolo[2,3-d]pyrimidin-4-yl)amino]cyclohexyl}-methanesulfonamide]
[1]
  IC50: 212 nM
[2]
  IC50: 8.73 nM
[3]
  IC50: 33.3 nM

## CN(c1ncnc2[nH]ccc12)[C@H]1CC[C@H](CS(=O)(=O)NCCC(F)=C(F)F)CC1 [Example 48, 1-{trans-4-[methyl(7H-pyrrolo[2,3-d]pyrimidin-4-yl)amino]cyclohexyl}-N-(3,4,4-trifluorobut-3-en-1-yl)methanesulfonamide]
[1]
  IC50: 267 nM
[2]
  IC50: 19.6 nM
[3]
  IC50: 66 nM
